We go through 2 compounds from article PMC9011347, “Small-Molecule Inhibitors Targeting Lipolysis in Human Adipocytes” (Journal of the American Chemical Society, 2022).

Holding throughout (assay): TAG hydrolase assay, Expi293 lysates expressing ATGL orthologue
Common to all, as to assay type: biochemical

Test [1] has as its system dog ATGL. The source says:
(§1) We previously developed Atglistatin (Ai), a selective inhibitor of mouse ATGL,[31],[32] which is ineffective against human ATGL.[17] Ai acts as a competitive inhibitor targeting the minimal active domain of ATGL ranging from aa 1–254.[33] This domain is highly conserved in different mammalian species (∼90% identity, Table 1) and comprises the patatin-like domain, eponymous for all members of the patatin-like phospholipase domain-containing (PNPLA) protein family.[34] We first investigated the species selectivity of Ai by performing TAG hydrolase assays[35] with lysates from Expi293 cells expressing ATGL orthologues of different species. The activity of ATGL is strongly stimulated by the co-activator protein comparative gene identification-58 (CGI-58, also known as α/β hydrolase domain containing 5, ABHD5)[36] and can be suppressed by the inhibitory protein G0/G1 switch 2 (G0S2).[37] We therefore determined ATGL activity in the presence and absence of mouse CGI-58, mouse G0S2, and Ai. As shown in Figure 1a–i, all ATGL orthologues were expressed, enzymatically active, stimulated by mouse CGI-58, and inactivated by mouse G0S2. Ai inhibited mouse (Figure 1a), rat (Figure 1b), goat (Figure 1c), dog (Figure 1e), and marmoset ATGL (Figure 1f), but not pig (Figure 1d), rhesus monkey (Figure 1g), or human ATGL (Figure 1h).
(§2) Experimental details, materials, and methods
(§3) Expression of recombinant ATGL constructs and preparation of cell lysates. Expi293 cells were cultivated in Expi293 Expression Medium (GIBCO, Thermo Fisher Scientific, Waltham, USA) at standard conditions (37°C, 5% CO2, 95% humidified atmosphere, 125 rpm). DNA constructs containing ATGL from different species and chimeric ATGL variants in pcDNA3.1(+)myc-His C Vector were obtained from BioCat GmbH (Heidelberg, Germany). Cells were transfected with ExpiFectamine293 Transfection Kit (GIBCO) in Opti-Mem reduced serum medium (GIBCO) according to the manufacturer’s instructions. After 48 h, cells were harvested by centrifugation and washed three times with PBS. Cells were disrupted in buffer A (0.25 M sucrose, 1 mM EDTA, 1 mM dithiothreitol, 20µg/ml leupeptin, 2 µg/ml antipain, 1 µg/ml pepstatin, pH 7.0) by sonication (Virsonic 475, Virtis, Gardiner, USA). Nuclei and debris were removed by centrifugation at 1,000 g and 4°C for 10 min. Protein concentrations were determined using Bio-Rad protein assay (Bio-Rad 785, Bio-Rad Laboratories, Munich, Germany) using BSA as standard.
(§4) Expression and purification of mouse CGI-58. CGI-58 was expressed and purified as described 1. In brief, the coding sequence of mouse Cgi-58 was cloned into pHis-Sumo and co-transformed with the plasmid pTf16 expressing the chaperone Tig into E. coli BL21(DE3). Cells were cultured overnight at 37°C and 180 rpm in the presence of 40 µg/ml kanamycin and 34 µg/ml chloramphenicol. Thereafter, cells were transferred into fresh LB medium, grown until OD600 of 0.6, and expression was induced by the addition of 0.5 mM IPTG. After overnight incubation at 30°C, cells were harvested at 4,500 x g and 4°C for 20 min, washed in 1x PBS, and resuspended in lysis buffer (20 mM Tris/HCl pH 7.8, 300 mM NaCl, 30 mM imidazole, 0.1% IGEPAL CA-630, 3.5 mM β-mercaptoethanol, 20 µg/ml leupeptin, 2 µg/ml antipain and 1 µg/ml pepstatin). Cells were incubated with 1 mg/ml lysozyme at 4°C for 20 min, disrupted by sonication, and lysates were centrifuged at 30,000 x g and 4°C for 40 min. His-CGI-58 was purified from the supernatant using an ÄKTA pure system (Cytiva, Uppsala, Sweden) equipped with a 5 ml HisTrap […]
(§5) Expression and purification of mouse G0S2. Chemically competent E. coli ArcticExpress (DE3) cells were transformed with the pST50-SMT3-TEV-mG0S2-His expression plasmid, plated on LB agar plates containing 100 ampicillin, and incubated […] overnight at 37°C. The next day, 10 ml LB medium supplemented with 100 μg/ml ampicillin, 20 μg/ml gentamycin and 2% glucose were inoculated with a single colony and incubated overnight at 37°C. […]

Test [2] has as its system goat ATGL.
Text: as §1, §2, §3, §4, §5

The test system of test [3] is marmoset ATGL.
Text: as §1, §2, §3, §4, §5

Test [4] deals with T1, mouse ATGL (Mus musculus, UniProt Q8BJ56).
T1 construct: host or cells: Expi293 cells, crude lysate
T1 sequence (Q8BJ56 whole entry): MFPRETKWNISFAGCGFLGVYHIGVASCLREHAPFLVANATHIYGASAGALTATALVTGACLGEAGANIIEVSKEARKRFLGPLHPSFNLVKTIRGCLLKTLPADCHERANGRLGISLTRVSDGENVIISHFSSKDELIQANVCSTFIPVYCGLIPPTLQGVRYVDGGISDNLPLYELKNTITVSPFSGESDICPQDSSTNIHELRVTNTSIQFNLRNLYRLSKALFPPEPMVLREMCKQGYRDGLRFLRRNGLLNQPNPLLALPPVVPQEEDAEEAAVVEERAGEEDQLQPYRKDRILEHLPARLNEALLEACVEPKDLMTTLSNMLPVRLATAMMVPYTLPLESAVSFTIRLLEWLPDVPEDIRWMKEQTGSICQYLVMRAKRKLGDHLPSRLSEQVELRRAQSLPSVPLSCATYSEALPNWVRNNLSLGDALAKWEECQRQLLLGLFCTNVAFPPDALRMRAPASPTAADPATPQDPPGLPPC
Text: as §1, §2, §3, §4, §5

The target of test [5] is T2, rat ATGL (Rattus norvegicus, UniProt P0C548).
T2 construct: host or cells: Expi293 cells, crude lysate
T2 sequence (P0C548 whole entry): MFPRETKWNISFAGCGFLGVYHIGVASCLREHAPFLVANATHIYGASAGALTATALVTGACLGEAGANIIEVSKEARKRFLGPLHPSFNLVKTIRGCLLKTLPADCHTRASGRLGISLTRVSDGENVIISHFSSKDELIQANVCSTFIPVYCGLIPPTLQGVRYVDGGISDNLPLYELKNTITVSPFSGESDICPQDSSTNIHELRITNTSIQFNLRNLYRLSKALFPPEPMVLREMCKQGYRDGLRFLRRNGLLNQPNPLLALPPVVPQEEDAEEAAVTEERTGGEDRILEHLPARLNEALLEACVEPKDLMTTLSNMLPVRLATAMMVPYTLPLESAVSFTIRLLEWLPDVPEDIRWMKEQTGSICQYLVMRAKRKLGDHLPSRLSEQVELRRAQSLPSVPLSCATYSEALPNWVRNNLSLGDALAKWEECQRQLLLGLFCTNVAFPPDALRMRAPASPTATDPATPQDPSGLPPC
Text: as §1, §2, §3, §4, §5

`CN(C)C(=O)Nc1cccc(-c2ccc(N(C)C)cc2)c1` [Atglistatin, reference compound]: the “inhibition of TAG hydrolase activity” value in test [1] (Atglistatin (Ai) 40 μM), in test [2] (Atglistatin (Ai) 40 μM), in test [3] (Atglistatin (Ai) 40 μM), in test [4] (Atglistatin (Ai) 40 μM) and in test [5] (Atglistatin (Ai) 40 μM) was “inhibited” in each case.

Consider `CCOc1ccc(-c2cc(OC)cc(C(=O)OC(C)C)n2)cc1` [NG-497], for which the “reduction in TAG hydrolase activity” value in test [1] (NG-497 50 μM), in test [2] (NG-497 50 μM), in test [3] (NG-497 50 μM), in test [4] (NG-497 50 μM) and in test [5] (NG-497 50 μM) was “less than 20%” each time.
